Data as given in patent US5087624A, “Chromic picolinate treatment” (Nutrition 21, priority 1990, dated 1992).
Several values for one entry are separate records, joined by “and”; a condition that tells them apart may be missing. Equal values may be shown once. Entries after “also recorded” stand apart in the source; their conditions may differ.

Columns and labels:
[1] = supplemental trivalent chromium; cited from earlier work
[2] = tested on: insulin; assay: Binding to insulin
[3] = Anabolic effect in male weight-training students (EXAMPLE 5); assay type: in vivo, human
Method: This study was performed to evaluate the anabolic effect of chromic tripicolinate in male subjects.
At the start of the study, 10 male university students enrolled in weight training classes, were given, at random, a 40-day supply of capsules that contained either placebo (5 mg of calcium phosphate) or chromic tripicolinate (1.6 mg chromic tripicolinate admixed with 5 mg of […], which provided 200 ug of chromium). The identity of the capsules was known only to an individual who was not in any way involved in the study. During the 40-day period, each of the volunteers followed a prescribed weight lifting protocol for a total of 3 hours per week. Measurements taken at the beginning and again at the end of the study included various skin-fold thicknesses, bicep and calf circumferences, and body weight. Percent body fat was derived from the sum of the triceps, subscapular and chest skinfolds. Lean body mass was derived from anthropometrically-determined percent body fat: weight -(weight ×percent body fat).

[4] = tested on: rats; assay: Oral toxicity experiment; assay type: in vivo, rat
Method: In a toxicity experiment, rats weighing a mean of 223.4 g were given an oral suspension of 100 mg, 300 mg and 500 mg chromic tripicolinate in water. […] The tests were stopped at 500 mg because it was impossible to obtain a workable suspension beyond this level.

[5] = tested on: Glucose Tolerance Factor activity; assay: Glucose Tolerance Factor activity
[6] = Cross-over study in subjects with adult onset diabetes mellitus (EXAMPLE 4); assay type: in vivo, human
Text: Normal values are 5.5% to 7.5%.

[7] = Absorption of orally given Cr-51 labelled chromium: radioactivity in liver and kidney; assay type: in vivo, male Sprague-Dawley rats; conditions: relative to chromic chloride, from Table 1
Text: The solution was cooled to room temperature before use.

[8] = tested on: insulin receptors; assay: Binding to insulin receptors
[9] = Double-blind cross-over study of serum lipids (EXAMPLE 3); assay type: in vivo, human
Method: The placebo contained only 5 mg calcium phosphate. […] Compliance by subjects was monitored by capsule count. The foregoing study protocol is illustrated in FIG. 1.
Student's t test and p values were determined with the program WORMSTAT^TM (available from Small Business Computers, New England, U.S.A.).

[10] = start of 42-day treatment (baseline), mean ± SD of 28 subjects

[Cl][Cr]([Cl])[Cl] [chromic chloride]
risk factors associated with maturity-onset diabetes and cardiovascular diseases [1]: associated with improvements of risk factors

chromic tripicolinate
binding to insulin [2]: binds to insulin | bicep circumference increase ([3]; 40 days, P=0.0056): 1.4±0.45 cm | calculated lean body mass increase ([3]; 40 days, P=0.017): 1.6 kg | increase in lean body mass compared with placebo group ([3]; Student's t test, P=0.0198): significantly greater | dose to be ingested before any effects would be observed ([4]; 70 Kg human, extrapolated from rat): > 156 grams | deaths ([4]; oral suspension 100 mg, 300 mg and 500 mg in water): No deaths occurred | oral lethal dose ([4]; rats, oral): > 2200 mg/kg | Glucose Tolerance Factor activity [5]: has Glucose Tolerance Factor activity | HDL trend ([6]; P was not <0.05): trends were favorable | cholesterol trend ([6]; P was not <0.05): trends were favorable | LDL decrease ([6]; diabetic subjects): 8% | blood pressure change ([6]; diabetic subjects): no significant changes | fasting glucose change ([6]; diabetic subjects): significant decreases | glycosylated hemoglobin change ([6]; diabetic subjects): significant decreases | heart rate change ([6]; diabetic subjects): no significant changes | temperature change ([6]; diabetic subjects): no significant changes | weight change ([6]; diabetic subjects): no significant changes | Hemoglobin A1 C decrease ([6]; treatment versus placebo groups): 12% | rate of absorption greater than that of chromic chloride [7]: about 4 times | binding to insulin receptors [8]: binds to insulin and insulin receptors | Apolipoprotein B reduction ([9]; 28 subjects, 42 days): 16% | LDL-cholesterol decrease ([9]; 28 subjects, 42 days): 10% | Total cholesterol decrease ([9]; 28 subjects, 42 days): 7% | LDL-cholesterol change ([9]; 28 subjects, 42 days, p<0.001): significant (p<0.001) reductions | Total cholesterol change ([9]; 28 subjects, 42 days, p<0.001): significant (p<0.001) reductions | Apolipoprotein B change ([9]; 28 subjects, p=0.001): decreased significantly | Apolipoprotein A1 change ([9]; 28 subjects, p=0.003): significantly elevated | fine rash about forearms ([9]; 200 micrograms Cr daily): one subject on chromium supplementation | mouth ulcers ([9]; 200 micrograms Cr daily): the other on chromium supplement | blood pressure change ([9]; 42 days): No significant changes | heart rate change ([9]; 42 days): No significant changes | serum triglycerides change ([9]; 42 days): No significant changes | temperature change ([9]; 42 days): No significant changes | weight change ([9]; 42 days): No significant changes | Apo B, Chng. ([9]; 42 days, 28 subjects, p = .001): -25 mg/dL | Apo A, Chng. ([9]; 42 days, 28 subjects, p = .003): +16 mg/dl | Apo B, Final ([9]; end of 42-day treatment, mean ± SD of 28 subjects): 130 mg/dL | LDL-cholesterol change ([9]; final 42 days, placebo-first group, p=0.003): decreased significantly | Total cholesterol change ([9]; final 42 days, placebo-first group, p=0.009): decreased significantly | Apolipoprotein B change ([9]; first 6-week period, chromic tripicolinate-first group, p=0.003): significantly decreased | Total cholesterol change ([9]; first 6-week period, chromic tripicolinate-first group, p=0.007): significantly decreased | LDL-cholesterol change ([9]; first 6-week period, chromic tripicolinate-first group, p=0.015): significantly decreased | Apolipoprotein A1 change ([9]; first 6-week period, chromic tripicolinate-first group, p=0.047): significantly elevated | other abnormalities ([9]; in vivo): No other abnormalities were noted | subjects with decreased LDL-cholesterol ([9]; of final 28 subjects): 20 | subjects with lower total cholesterol ([9]; of final 28 subjects): 22 | subjects with total cholesterol elevated less than 0.1 mmole/1 (5 mg/dl) ([9]; of final 28 subjects): 4 | subjects with unchanged LDL-cholesterol ([9]; of final 28 subjects): 3 | subjects with unchanged total cholesterol ([9]; of final 28 subjects): 2 | HDL-cholesterol change ([9]; p>0.05): increased slightly but not significantly | Apolipoprotein B change ([9]; placebo-first group, after supplementation, p=0.072): decreased, but not significantly | Apolipoprotein A1 change ([9]; placebo-first group, supplementation period, p=0.007): increased significantly | Apo A, Init [9, 10]: 147 ± 28 mg/dL | Apo B, Init [9, 10]: 155 ± 50 mg/dL and 155 mg/dL | Apolipoprotein A1 change, summary ([9]; summary): elevated; also recorded: significant elevation | Apolipoprotein B change, summary ([9]; summary): decreased; also recorded: significant reduction | LDL-cholesterol change, summary ([9]; summary of Examples 3 and 4): decreased | Total cholesterol change, summary ([9]; summary of Examples 3 and 4): decreased
